Measurements taken from patent US7273880B2, “Selective NPY (Y5) antagonists” (H. Lunbeck A/S, priority 1999, dated 2007).
Counter-ions that a name gives are not always drawn.

Biological target: T1, human Y5 receptor (hNPY-5) (Homo sapiens, UniProt Q15761)
T1 construct: expressed in transfected cells; host or cells: mouse fibroblast LM(tk-) cells, e.g. L-hY5-7 (ATCC CRL-11995)
T1 sequence (Q15761 1-445): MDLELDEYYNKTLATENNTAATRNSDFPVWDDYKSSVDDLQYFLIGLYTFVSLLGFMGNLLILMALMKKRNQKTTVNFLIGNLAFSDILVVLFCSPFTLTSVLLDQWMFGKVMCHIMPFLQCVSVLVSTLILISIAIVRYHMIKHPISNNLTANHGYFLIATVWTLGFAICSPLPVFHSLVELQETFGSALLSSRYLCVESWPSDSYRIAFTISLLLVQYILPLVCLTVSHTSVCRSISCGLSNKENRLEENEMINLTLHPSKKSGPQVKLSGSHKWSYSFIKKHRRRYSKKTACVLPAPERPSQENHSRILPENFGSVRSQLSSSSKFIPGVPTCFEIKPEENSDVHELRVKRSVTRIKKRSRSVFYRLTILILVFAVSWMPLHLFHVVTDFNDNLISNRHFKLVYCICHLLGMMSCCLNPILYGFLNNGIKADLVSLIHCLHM
Test: Radioligand binding to membranes, cloned human Y5 receptor
Conditions: cloned human NPY Y5 receptor, radioligand competition binding; Tables 1-3; read-out: Ki, nM hNPY-5
Experimental: Binding of the compounds of the present invention to human Y1, Y2, Y4, and Y5 receptors was evaluated using stably transfected 293 or LM(tk-) cells as described above. Stably transfected cell lines which may be used for binding assays include, for example, for the human Y1 receptor, 293-hY1-5 (deposited Jun. 4, 1996, under ATCC Accession No. CRL-12121), for the human Y2 receptor, 293-hY2-10 (deposited Jan. 27, 1994, under ATCC Accession No. CRL-11537), for the human Y4 receptor, L-hY4-3 (deposited Jan. 11, 1995, under ATCC Accession No. CRL-11779), and for human Y5 receptor, L-hY5-7 (deposited Nov. 15, 1995, under ATCC Accession No. CRL-11995). These cell lines were deposited with the American Type Culture Collection (ATCC), 10801 University Blvd., Manassas, Va. 20110-2209, U.S.A. under the provisions of the Budapest Treaty for the International Recognition of the Deposit of Microorganisms for the Purposes of Patent Procedure.
Membranes were harvested from COS-7 cells 48 hours after transient transfection. Adherent cells were washed twice in ice-cold phosphate buffered saline (138 mM NaCl, 8.1 mM Na2HPO4, 2.5 mM KCl, 1.2 mM KH2PO4, 0.9 mM CaCl2, 0.5 mM MgCl2, pH 7.4) and lysed by sonication in ice-cold sonication buffer (20 mM Tris-HCl, 5 mM EDTA, pH 7.7). Large particles and debris were cleared by low speed centrifugation (200×g, 5 min, 4° C.). Membranes were collected from the supernatant fraction by centrifugation (32,000×g, 18 min, 4° C.), washed with ice-cold hypotonic buffer, and collected again by centrifugation (32,000×g, 18 min, 4° C.). The final membrane pellet was resuspended by sonication into a small volume of ice-cold binding buffer (˜1 ml for every 5 plates: 10 mM NaCl, 20 mM HEPES, 0.22 mM KH2PO4, 1.26 mM CaCl2, 0.81 mM MgSO4, pH 7.4). Protein concentration was measured by the Bradford method (Bradford, 1976) using Bio-Rad Reagent, with bovine serum albumin as a standard. Membranes were held on ice for up to one hour and used fresh, or flash-frozen and stored in liquid nitrogen.
Membranes were prepared similarly from 293, LM(tk-), and NIH-3T3 cells. To prepare membranes from baculovirus infected cells, 2×10^7 Sf21 cells were grown in 150 mm tissue culture dishes and infected with a high-titer stock of hY5BB3. Cells were incubated for 2-4 days at 27° C., no CO2 before harvesting and membrane preparation as described above.
Membrane suspensions were diluted in binding buffer supplemented with 0.1% bovine serum albumin to yield an optimal membrane protein concentration so that ^125I-PYY (or alternative radioligand such as ^125I-NPY, ^125I-PYY3-36, or ^125I-[Leu^31Pro^34]PYY) bound by membranes in the assay was less than 10% of ^125I-PYY (or alternative radioligand) delivered to the sample (100,000 dpm/sample=0.08 nM for competition binding assays). ^125I-PYY (or alternative radioligand) and peptide competitors were also diluted to desired concentrations in supplemented binding buffer. Individual samples were then prepared in 96-well polypropylene microtiter plates by mixing 125I-PYY (25 μL) (or alternative radioligand), competing peptides or supplemented binding buffer (25 μL), and finally, membrane suspensions (200 μL). Samples were incubated in a 30° C. water bath with constant shaking for 120 min. Incubations were terminated by filtration over Whatman GF/C filters (pre-coated with 1% polyethyleneimine and air-dried before use), followed by washing with 5 mL of ice-cold binding buffer. Filter-trapped membranes were impregnated with MeltiLex solid scintillant (Wallac, Turku, Finland) and counted for ^125I in a Wallac Beta-Plate Reader. Alternatively, incubations were carried out in GF/C filter plates (pre-coated with 1% polyethyleneimine and air-dried before use), followed by vacuum filtration and three washes of 300 μL of ice-cold binding buffer. 50 μL of UltimaGold (Packard) scintillant were added and counted for ^125I in a Wallac MicroBeta Trilux. […]

Structure (SMILES)	Ki [nM]
CN(C)S(=O)(=O)NCCCCCNc1nc2c(s1)CCCc1ccc(F)cc1-2 [Example 2, 1-Aza-9-fluoro-4,5-dihydro-2-{5-(dimethyl-aminosulfonyl-amino)pentyl}amino-3-thia-benzo[e]azulene]	1.6
CN(C)S(=O)(=O)NCCCCNc1nc2c(s1)CCCc1ccc(F)cc1-2 [Example 6, 1-Aza-9-fluoro-4,5-dihydro-2-(4-(dimethyl-aminosulfonyl-amino)butyl)amino-3-thia-benzo[e]-azulene]	3.1
O=S(=O)(NCCCCNc1nc2c(s1)CCCc1ccc(F)cc1-2)c1cccc2ccccc12 [Example 8, 1-Aza-9-fluoro-4,5-dihydro-2-(4-(1-naphthyl)sulfonyl-amino)butylamino-3-thia-benzo[e]azulene]	94
CC(C)S(=O)(=O)NCCCCCNc1nc2c(s1)CCCc1ccc(F)cc1-2 [Example 13, 1-Aza-9-fluoro-4,5-dihydro-2-(5-isopropyl-sulfonylamino)-pentylamino-3-thia-benzo[e]azulene]	132
COc1ccc(S(=O)(=O)N[C@H]2CC[C@H](Nc3nc4c(s3)CCCc3ccc(F)cc3-4)CC2)cc1 [Example 36, trans-1-Aza-9-fluoro-4,5-dihydro-2-(4-(4-methoxy-phenyl)sulfonylamino)cyclohexylamino-3-thia-benzo[e]-azulene]	60
O=S(=O)(NC[C@H]1CC[C@H](Nc2nc3c(s2)CCCc2ccc(F)cc2-3)CC1)C(F)(F)F [Example 41, trans-1-Aza-9-fluoro-2-{4-trifluoromethylsulfonyl-aminomethyl}cyclohexylamino-4,5-dihydro-3-thiabenzo[e]-azulene]	30
CCS(=O)(=O)N[C@H]1CC[C@H](CNc2nc3c(s2)CCCc2ccc(F)cc2-3)CC1 [Example 52, trans-N2-(4-Ethylsulfonylamino)cyclohexylmethyl-9-fluoro-5,6-dihydro-4H-benzo[6,7]cyclohepta[d][1,3]-thiazol-2-amine]	1.7
CC(C)S(=O)(=O)N[C@H]1CC[C@H](CNc2nc3c(s2)CCCc2ccc(F)cc2-3)CC1 [Example 53, trans-1-Aza-9-fluoro-4,5-dihydro-2-{4-isopropyl-sulfonylamino}cyclohexylmethylamino-3-thia-benzo[e]-azulene]	3.2
O=S(=O)(NCCCCCNc1nc2c(s1)CCCc1ccc(F)cc1-2)c1cccnc1 [Example 55, 1-Aza-9-fluoro-4,5-dihydro-2-(5-(3-pyridyl)sulfonyl-amino)pentylamino-3-thia-benzo[e]azulene]	3.4
O=S(=O)(NCCCCNc1nc2c(s1)CCCc1ccc(F)cc1-2)c1cccnc1 [Example 56, 1-Aza-9-fluoro-4,5-dihydro-2-(4-(3-pyridyl)sulfonyl-amino)butylamino-3-thia-benzo[e]azulene]	26
COc1ccc(C)cc1S(=O)(=O)NCCOCCNc1nc2c(s1)CCCc1ccc(F)cc1-2 [Example 58, 1-Aza-9-fluoro-4,5-dihydro-2-{2-[2-(2-methoxy-5-methylphenyl)sulfonylamino]ethoxy}ethylamino-3-thia-benzo[e]azulene]	3
O=S(=O)(NC[C@H]1CC[C@H](Nc2nc3c(s2)CCCc2ccc(F)cc2-3)CC1)c1cccnc1 [Example 59, trans-1-Aza-9-fluoro-4,5-dihydro-2-(4-(3-pyridyl)-sulfonylaminomethyl)cyclohexylamino-3-thia-benzo[e]-azulene]	2.3
COP(=O)(N[C@H]1CC[C@H](CNc2nc3c(s2)CCCc2ccc(F)cc2-3)CC1)OC [Example 67, trans-N2-(4-Dimethylphosphonylamino)cyclohexylmethyl-9-fluoro-5,6-dihydro-4H-benzo[6,7]cyclohepta[d][1,3]-thiazol-2-amine]	5.5

Other lines, results leading:

Ki [nM]	Structure (SMILES)
31	COc1ccc2c(c1)-c1nc(NC[C@H]3CC[C@H](NS(C)(=O)=O)CC3)sc1CCO2 [Example 63, trans-1-Aza-4,5-dihydro-9-methoxy-2-{4-methylsulfonyl-amino}cyclohexylmethylamino-6-oxa-3-thia-benzo[e]azulene]
11.6	COc1cccc2c1OCCc1sc(NC[C@H]3CC[C@H](NS(C)(=O)=O)CC3)nc1-2 [Example 65, trans-N2-(4-Methylsulfonylamino)cyclohexylmethyl-7-methoxy-4,5-dihydro-benzo[2,3]oxepino[4,5-d][1,3]-thiazol-2-amine hydrochloride]
2	COc1cccc2c1OCCc1sc(NC[C@H]3CC[C@H](NS(=O)(=O)N(C)C)CC3)nc1-2 [Example 66, trans-1-Aza-4,5-dihydro-7-methoxy-2-{4-dimethylamino-sulfonylamino}cyclohexylmethylamino-6-oxa-3-thia-benzo[e]azulene]
4	CCOC(=O)N[C@H]1CC[C@H](CNc2nc3c(s2)CCCc2ccc(F)cc2-3)CC1 [Example 68, trans-N2-(4-Ethoxycarbonylamino)cyclohexylmethyl-9-fluoro-5,6-dihydro-4H-benzo[6,7]cyclohepta[d][1,3]-thiazol-2-amine hydrochloride]
4.1	CC(C)S(=O)(=O)NCCOCCNc1nc2c(s1)CCCc1ccc(F)cc1-2 [Example 69, 1-Aza-9-fluoro-4,5-dihydro-2-(2-(2-isopropyl-sulfonylamino)-ethoxy)ethylamino-3-thia-benzo[e]-azulene]
21	CS(=O)(=O)NCC1CCC(Nc2nc3c(s2)COc2ccccc2-3)CC1 (centres unmarked) [Example 70, 2-(4-Methylsulfonylaminomethyl)cyclohexylamino-4H-chromeno[4,3-d]thiazole]
2.5	COc1ccc2c(c1)CCCc1sc(NC[C@H]3CC[C@H](NS(C)(=O)=O)CC3)nc1-2 [Example 71, trans-1-Aza-4,5-dihydro-8-methoxy-2-(4-methylsulfonyl-amino)cyclohexylmethylamino-3-thia-benzo[e]azulene]
8.7	COc1ccc2c(c1)CCCc1sc(N[C@H]3CC[C@H](CNS(=O)(=O)C(C)C)CC3)nc1-2 [Example 73, trans-1-Aza-4,5-dihydro-2-(4-isopropylsulfonyl-aminomethyl)-cyclohexylamino-8-methoxy-3-thia-benzo[e]-azulene]
37	COc1cccc2c1OCCc1sc(N[C@H]3CC[C@H](CNS(C)(=O)=O)CC3)nc1-2 [Example 74, trans-1-Aza-4,5-dihydro-2-(4-methylsulfonylamino-methyl)-cyclohexylamino-7-methoxy-3-thia-benzo[e]-azulene]
36	CCC(=O)NC[C@H]1CC[C@H](Nc2nc3c(s2)CCCc2ccc(F)cc2-3)CC1 [Example 75, trans-1-Aza-4,5-dihydro-2-(4-ethylcarbonylamino-methyl)-cyclohexylamino-9-fluoro-3-thia-benzo[e]-azulene]
